Source: patent US12459951B2, “Compounds that interact with RAS superfamily proteins for treatment of cancers, inflammatory diseases, rasopathies, and fibrotic disease” (SHY Therapeutics, LLC, priority 2022, dated 2025)

Assays:
[1] = target: T1, Rac-1 (Homo sapiens, UniProt P63000); assay: Ras GTP Binding Domain Inhibition Assay (Ras Superfamily Assay); details: read-out: Rac-1: % inh.
T1 construct: made in house
In short: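 Binding of 100 nM fluorescent GTP (Cy3 or Cy5, 45 min, room temperature) was read after washes from plate-captured His-tagged protein. Beforehand, compounds at 20 μM or in dilution series for IC50 sat 3 h on the protein in Tris buffer pH 7.4 or 7.0 with 1% DMSO, Sos GEF optionally added for the last hour.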

[2] = system: Erk1/2 phosphorylation; assay: Erk1/2 Phosphorylation Assay (western blot), Panc-1; assay type: cell-based, human; details: at 10 μM, * = activation
In short: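 KRas G12D Panc-1 cells were treated 6 h at 37° C with compound at 10 μM or serial dilutions for IC50 (0.3% DMSO). In method 1, cells were serum-starved overnight (0.5% FBS) and then given 1.5 ng/ml EGF for 15 min. In method 2, cells stayed in 10% FBS without stimulation. Lysate phospho-Erk1/2 (Thr202/Tyr204) was read by western blot.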

Row | SMILES | inhibition at 20 µM [1] [%] | % inh of Erk1/2 phosphorylation in Panc-1 [2]
1 | COCC1CCN(c2nc(-c3ccccn3)nn3cc(-c4ccn(C(C)C)n4)c(C)c23)C1 (racemic) [Compound 10, rac 6-(1-Isopropyl-1H-pyrazol-3-yl)-4-(3-(methoxymethyl)pyrrolidin-1-yl)-5-methyl-2-(pyridin-2-yl)pyrrolo[2,1-f][1,2,4]triazine] | 1 to 25 | 0 (0% inhibition)
2 | COC[C@@H]1CC[C@@H]1CNc1nc(-c2ccccn2)nn2cc(-c3ccn(C(C)C)n3)c(C)c12 (racemic) [Compound 11, rac 6-(1-Isopropyl-1H-pyrazol-3-yl)-N-(((1S,2R)-2-(methoxymethyl)cyclobutyl)methyl)-5-methyl-2-(pyridin-2-yl)pyrrolo[2,1-f][1,2,4]triazin-4-amine] | 0 | 0 (0% inhibition)
3 | COC1CCCN(c2nc(-c3ccccn3)nn3cc(-c4ccn(C(C)C)n4)c(C)c23)C1 (racemic) [Compound 12, rac 6-(1-Isopropyl-1H-pyrazol-3-yl)-4-(3-methoxypiperidin-1-yl)-5-methyl-2-(pyridin-2-yl)pyrrolo[2,1-f][1,2,4]triazine] | 0 | 0 (0% inhibition)
4 | CO[C@H]1CC[C@H](Nc2nc(-c3nccn3C)nn3cc(-c4ccn(C)n4)c(C(=O)NCC(F)(F)F)c23)C1 (racemic) [Compound 181, 4-(((1S,3S)-3-Methoxycyclopentyl)amino)-2-(1-methyl-1H-imidazol-2-yl)-6-(1-methyl-1H-pyrazol-3-yl)-N-(2,2,2-trifluoroethyl)pyrrolo[2,1-f][1,2,4]triazine-5-carboxamide] | 1 to 25 | A (1-25% inhibition)
5 | CO[C@H]1CC[C@H](Nc2nc(-c3nccn3C)nn3cc(-c4ccn(C)n4)c(C(=O)NC4CC4)c23)C1 (racemic) [Compound 182, rac N-Cyclopropyl-4-(((1S,3S)-3-methoxycyclo-pentyl)amino)-2-(1-methyl-1H-imidazol-2-yl)-6-(1-methyl-1H-pyrazol-3-yl)pyrrolo[2,1-f][1,2,4]triazine-5-carboxamide] | 1 to 25 | A* (1-25% activation)
6 | COCCNC(=O)c1c(-c2ccn(C)n2)cn2nc(-c3nccn3C)nc(N[C@H]3CC[C@H](OC)C3)c12 (racemic) [Compound 183, rac 4-(((1S,3S)-3-Methoxycyclo-pentyl)amino)-N-(2-methoxyethyl)-2-(1-methyl-1H-imidazol-2-yl)-6-(1-methyl-1H-pyrazol-3-yl)pyrrolo[2,1-f][1,2,4]triazine-5-carboxamide] | 1 to 25 | D* (85-100% activation)
7 | COCCCNC(=O)c1c(-c2ccn(C)n2)cn2nc(-c3nccn3C)nc(N[C@H]3CC[C@H](OC)C3)c12 (racemic) [Compound 184, rac 4-(((1S,3S)-3-methoxycyclo-pentyl)amino)-N-(3-methoxypropyl)-2-(1-methyl-1H-imidazol-2-yl)-6-(1-methyl-1H-pyrazol-3-yl)pyrrolo[2,1-f][1,2,4]triazine-5-carboxamide] | 1 to 25 | A* (1-25% activation)
8 | CO[C@H]1CC[C@H](Nc2nc(-c3nccn3C)nn3cc(-c4ccn(C)n4)c(C(=O)NCCN4CCOCC4)c23)C1 (racemic) [Compound 185, rac 4-(((1S,3S)-3-methoxycyclo-pentyl)amino)-2-(1-methyl-1H-imidazol-2-yl)-6-(1-methyl-1H-pyrazol-3-yl)-N-(2-morpholino-ethyl)pyrrolo[2,1-f][1,2,4]triazine-5-carboxamide] | 0 | B (26-49% inhibition)
9 | CO[C@@H]1C[C@H]1Nc1nc(-c2nccn2C)nn2cc(-c3cccnc3)c(-c3ccccc3)c12 (racemic) [Compound 190, N-((1R,2R)-2-Methoxycyclopropyl)-2-(1-methyl-1H-imidazol-2-yl)-5-phenyl-6-(pyridin-3-yl)pyrrolo[2,1-f][1,2,4]triazin-4-amine] | 26 to 49 | D* (85-100% activation)
10 | CO[C@H]1CC[C@@H](Nc2nc(-c3nccn3C)nn3cc(-c4cccnc4)c(-c4ccccc4)c23)C1 (racemic) [Compound 193, rac N-((1R,3S)-3-Methoxycyclopentyl)-2-(1-methyl-1H-imidazol-2-yl)-5-phenyl-6-(pyridin-3-yl)pyrrolo[2,1-f][1,2,4]triazin-4-amine] | 1 to 25 | D* (85-100% activation)
11 | CO[C@H]1CC[C@H](Nc2nc(-c3nccn3C)nn3cc(-c4cccnc4)c(-c4ccccc4)c23)C1 (racemic) [Compound 194, rac N-((1S,3S)-3-Methoxycyclopentyl)-2-(1-methyl-1H-imidazol-2-yl)-5-phenyl-6-(pyridin-3-yl)pyrrolo[2,1-f][1,2,4]triazin-4-amine] | 1 to 25 | D* (85-100% activation)
12 | CO[C@@H]1C[C@H]1Nc1nc(-c2nccn2C)nn2cc(-c3ccncc3)c(-c3ccccc3)c12 (racemic) [Compound 197, rac N-((1R,2R)-2-methoxycyclopropyl)-2-(1-methyl-1H-imidazol-2-yl)-5-phenyl-6-(pyridin-4-yl)pyrrolo[2,1-f][1,2,4]triazin-4-amine] | 1 to 25 | D* (85-100% activation)
13 | CO[C@H]1CC[C@@H](Nc2nc(-c3nccn3C)nn3cc(-c4ccncc4)c(-c4ccccc4)c23)C1 (racemic) [Compound 200, rac N-((1R,3S)-3-Methoxycyclopentyl)-2-(1-methyl-1H-imidazol-2-yl)-5-phenyl-6-(pyridin-4-yl)pyrrolo[2,1-f][1,2,4]triazin-4-amine] | 26 to 49 | D* (85-100% activation)
14 | CO[C@H]1CC[C@H](Nc2nc(-c3nccn3C)nn3cc(-c4ccncc4)c(-c4ccccc4)c23)C1 (racemic) [Compound 201, rac N-((1S,3S)-3-Methoxycyclopentyl)-2-(1-methyl-1H-imidazol-2-yl)-5-phenyl-6-(pyridin-4-yl)pyrrolo[2,1-f][1,2,4]triazin-4-amine] | 26 to 49 | D* (85-100% activation)
15 | COc1cc(Nc2nc(-c3ccccn3)nn3cc(-c4ccn(C(C)C)n4)c(C)c23)ncn1 [Compound 13, 6-(1-Isopropyl-1H-pyrazol-3-yl)-N-(6-methoxypyrimidin-4-yl)-5-methyl-2-(pyridin-2-yl)pyrrolo[2,1-f][1,2,4]triazin-4-amine] | 0 | 0 (0% inhibition)
16 | COc1cccc(Nc2nc(-c3ccccn3)nn3cc(-c4ccn(C(C)C)n4)c(C)c23)n1 [Compound 14, 6-(1-Isopropyl-1H-pyrazol-3-yl)-N-(6-methoxypyridin-2-yl)-5-methyl-2-(pyridin-2-yl)pyrrolo[2,1-f][1,2,4]triazin-4-amine] | 0 | 0 (0% inhibition)
17 | COc1cccc(-c2cn3nc(-c4nccn4C)nc(O)c3c2C)c1Cl [Compound 15, 6-(2-Chloro-3-methoxyphenyl)-5-methyl-2-(1-methyl-1H-imidazol-2-yl)pyrrolo[2,1-f][1,2,4]triazin-4-ol] | 0 | 0 (0% inhibition)
